In patent US8916599B2, “1H-benz imidazole-5-carboxamides as anti-inflammatory agents” (Orexo AB, priority 2008, dated 2014) one finds inhibition data, which are given here for 24 compounds.

Molecules are shown by their SMILES.

One test deals with T1, recombinant human mPGES-1 (Homo sapiens, UniProt O14684).
T1 construct: made in house; host or cells: Rosetta E. coli (microsomal/membrane fraction)
T1 sequence (O14684 1-152): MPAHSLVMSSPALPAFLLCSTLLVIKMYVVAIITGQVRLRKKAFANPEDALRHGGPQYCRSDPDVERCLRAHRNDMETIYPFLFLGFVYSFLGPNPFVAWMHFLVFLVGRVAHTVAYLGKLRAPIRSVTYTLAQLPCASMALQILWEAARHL
The test can be described thus: mPGES-1 inhibition test (microsomes, PGH2 substrate, HTRF detection of PGE2). In kind it is biochemical. As to conditions: inhibition of mPGES-1 at 1 μM (marked in cell). The procedure, abridged:
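E. coli microsomal enzyme, 0.1 M KPi pH 7.4 + 2.5 mM GSH; cpd (DMSO) 25 min RT; PGH2 1 min; acidic FeCl2 stop. Dilute 750-fold, HTRF (d2/Eu-cryptate anti-PGE2, overnight 4 °C), 665/620 ratio vs PGE2 standard curve.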
A general note: Time-resolved FRET reads energy transfer from a long-lived donor to a nearby acceptor.
The term inhibition denotes the share of the control response that was lost under treatment. For the compound `Cc1ccc(Cl)c(Nc2nc3cc(C(=O)NC4CCCCC4)c(F)cc3[nH]2)c1F` [Example 649, 2-(6-Chloro-2-fluoro-3-methyl-phenylamino)-N-cyclohexyl-6-fluoro-1H-benzimidazole-5-carboxamide], the inhibition at 1 µM is 96%.
The same measure, in the same setting: the result for `COc1cc2c(cc1C(=O)N[C@H]1CC[C@H](C(F)(F)F)CC1)nc(Nc1c(Cl)ccc(C)c1F)n2C` [Example 647, 2-(6-Chloro-2-fluoro-3-methyl-phenylamino)-6-methoxy-N-(trans-4-trifluoromethyl-cyclohex-1-yl)-1-methyl-1H-benzimidazole-5-carboxamide] reads 97%.

Still in this test, the particulars now being: inhibition of mPGES-1 at 10 μM.
Regarding `Cn1c(Nc2c(Cl)cccc2Cl)nc2cc(C(=O)NC3CCC4(CC3)CC4)c(F)cc21` [Example 419, 2-(2,6-Dichlorophenylamino)-6-fluoro-1-methyl-N-(spiro[2.5]octan-6-yl)-1H-benzimidazole-5-carboxamide], the inhibition at 10 µM was 100%.
Still for that read-out and setting: to `O=C(NCc1ccccn1)c1ccc2[nH]c(Nc3c(Cl)cccc3Cl)nc2c1` [Example 235, 2-(2,6-Dichloro-phenylamino)-1H-benzimidazole-5-carboxylic acid (pyridin-2-ylmethyl)-amide] belongs 79%.
Consider `O=C(Nc1ccccc1)c1ccc2[nH]c(Nc3c(F)cccc3Cl)nc2c1` [Example 19, 2-(2-Chloro-6-fluoro-phenylamino)-1H-benzimidazole-5-carboxylic acid-phenylamide], for which the inhibition at 10 µM amounted to 91%.
Take `Cn1c(Nc2c(Cl)cccc2Cl)nc2cc(C(=O)NCc3ccc(C(F)(F)F)cn3)ccc21` [Example 246, 2-(2,6-Dichloro-phenylamino)-1-methyl-1H-benzimidazole-5-carboxylic acid (5-trifluoromethyl-pyridin-2-ylmethyl)-amide]: the inhibition at 10 µM was 100%.
For the compound `Cn1c(Nc2c(Cl)cccc2Cl)nc2cc(C(=O)NCc3cc(C(F)(F)F)ccn3)ccc21` [Example 245, 2-(2,6-Dichloro-phenylamino)-1-methyl-1H-benzimidazole-5-carboxylic acid (4-trifluoromethyl-pyridin-2-ylmethyl)-amide], the inhibition at 10 µM came out at 97%.
Regarding `O=C(NCC1CCCCC1)c1ccc2[nH]c(Nc3c(Cl)cccc3Cl)nc2c1` [Example 288, 2-(2,6-Dichloro-phenylamino)-1H-benzimidazole-5-carboxylic acid cyclohexylmethyl-amide], the inhibition at 10 µM was 100%.
Same read-out and setting: to `CC(C)Oc1cc2[nH]c(Nc3c(Cl)ccc(Cl)c3F)nc2cc1C(=O)Nc1cccc(Cl)c1` [Example 614, 2-(3,6-Dichloro-2-fluoro-phenylamino)-N-(3-chloro-phenyl)-6-isopropoxy-1H-benzimidazole-5-carboxamide] belongs 100%.
Same read-out and setting: to `Cc1cc2[nH]c(Nc3c(Cl)cccc3Cl)nc2cc1C(=O)NC1CCC(C(C)(C)C)CC1` (stereo not drawn) [compound 148] belongs 100%.
On to `CCCCOc1cccc(NC(=O)c2ccc3[nH]c(Nc4c(Cl)cccc4Cl)nc3c2)n1` [Example 426, N-(6-Butoxypyridin-2-yl)-2-(2,6-dichlorophenylamino)-1H-benzimidazole-5-carboxamide], for which the inhibition at 10 µM came to 98%.
The same measure, in the same setting: to `O=C(NCc1cccc(C(F)(F)F)n1)c1ccc2[nH]c(Nc3c(Cl)cccc3Cl)nc2c1` [Example 223, 2-(2,6-Dichloro-phenylamino)-1H-benzimidazole-5-carboxylic acid (6-trifluoromethyl-pyridin-2-ylmethyl)-amide] belongs 87%; to `COc1cc2[nH]c(Nc3c(Cl)cccc3Cl)nc2cc1C(=O)NCc1ncccc1C` [Example 577, 2-(2,6-Dichlorophenylamino)-6-methoxy-N-((3-methylpyridin-2-yl)-methyl)-1H-benzimidazole-5-carboxamide], 100%; to `Cn1c(Nc2c(Cl)cccc2Cl)nc2cc(C(=O)Nc3cc(Cl)ccn3)c(F)cc21` [Example 129, 2-(2,6-Dichloro-phenylamino)-6-fluoro-1-methyl-1H-benzimidazole-5-carboxylic acid (4-chloro-pyridin-2-yl)-amide], 92%.
For `O=C(Nc1ccc(Br)cc1)c1ccc2[nH]c(Nc3c(Cl)cccc3OC(F)(F)F)nc2c1` [Example 557, N-(4-Bromophenyl)-2-(2-chloro-6-(trifluoromethoxy)phenylamino)-1H-benzimidazole-5-carboxamide], the inhibition at 10 µM came to 69%.
Still for that read-out and setting: the result for `O=C(Nc1ccc(Br)cn1)c1ccc2nc(Nc3c(F)cccc3Cl)[nH]c2c1` [Example 192, 2-(2-Chloro-6-fluoro-phenylamino)-3H-benzimidazole-5-carboxylic acid (5-bromo-pyridin-2-yl)-amide] reads 100%.
The same measure, in the same setting: the result for `COc1cc2c(cc1C(=O)Nc1cc(Cl)c(C)cn1)nc(Nc1c(Cl)cccc1Cl)n2C` [Example 634, 2-(2,6-Dichlorophenylamino)-N-(4-chloro-5-methyl-pyridin-2-yl)-6-methoxy-1-methyl-1H-benzimidazole-5-carboxamide] reads 97%.
On the same count and under the same terms, to `Cc1cc(C)nc(NC(=O)c2cc3nc(Nc4c(Cl)cccc4Cl)n(C)c3cc2F)c1` [Example 128, 2-(2,6-Dichloro-phenylamino)-6-fluoro-1-methyl-1H-benzimidazole-5-carboxylic acid (4,6-dimethyl-pyridin-2-yl)-amide] belongs 100%.
Take `CC1(C)CCC(NC(=O)c2cc3nc(Nc4c(Cl)ccc(Cl)c4F)[nH]c3cc2F)CC1` [Example 596, 2-(3,6-Dichloro-2-fluoro-phenylamino)-N-(4,4-dimethyl-cyclohex-1-yl)-6-fluoro-1H-benzimidazole-5-carboxamide]: the inhibition at 10 µM stood at 95%.
The same measure, in the same setting: to `O=C(NCc1ncccc1C(F)(F)F)c1ccc2[nH]c(Nc3c(Cl)cccc3Cl)nc2c1` [Example 220, 2-(2,6-Dichloro-phenylamino)-1H-benzimidazole-5-carboxylic acid (3-trifluoromethyl-pyridin-2-ylmethyl)-amide] belongs 96%; to `NCCCn1c(Nc2c(Cl)cccc2Cl)nc2cc(C(=O)Nc3cc(Cl)ccn3)ccc21` [Example 208, 2-(2,6-Dichloro-phenylamino)-1-(3-amino-propyl)-1H-benzimidazole-5-carboxylic acid (4-chloro-pyridin-2-yl)-amide(trifluoro-acetate)], 100%; to `O=C(NC1CCC2(CC1)CC2)c1cc2nc(Nc3c(Cl)ccc(Cl)c3F)[nH]c2cc1F` [Example 608, 2-(3,6-Dichloro-2-fluoro-phenylamino)-N-(spiro[2.5]oct-6-yl)-6-fluoro-1H-benzimidazole-5-carboxamide], 92%.
On the same count and under the same terms, the result for `Cc1cc(NC(=O)c2ccc3nc(Nc4c(Cl)cccc4Cl)[nH]c3c2)ccn1` [Example 193, 2-(2,6-Dichloro-phenylamino)-3H-benzimidazole-5-carboxylic acid (2-methyl-pyridin-4-yl)-amide] reads 99%.
On the same count and under the same terms, the result for `COc1cc2[nH]c(Nc3c(Cl)ccc(Cl)c3F)nc2cc1C(=O)NC1CCC2(CC1)CC2` [Example 613, 2-(3,6-Dichloro-2-fluoro-phenylamino)-N-(spiro[2.5]oct-6-yl)-6-methoxy-1H-benzimidazole-5-carboxamide] reads 91%.
